Test results from patent publication US5853695A, “Method for palliation of pain in human bone cancer using therapeutic tin-117m compositions” (Brookhaven Science Associates LLC, priority 1996, dated 1998).
“Also recorded” adds a separate entry of the source.

Columns and labels:
[1] = tested on: white blood cells and platelets; test: Hemopoietic toxicity by complete blood counts (white blood cells, platelets); assay type: in vivo, human
Description: (§1) Prior to initiation of therapy a Tc-99m MDP bone imaging study was obtained. Complete blood counts, including a differential and platelet count, electrolytes, and blood chemistries were obtained. No radiotherapy or chemotherapy had been administered to the patients in the prior month. Hormonal therapy was continued if the patient had been on hormonal therapy for more than three months without improvement in their clinical status.
(§2) Sn-117m (Sn^4+) DTPA was administered through an inlying infusion line over a period of 5-10 minutes. […] A complete urine collection was obtained over 4 days and a blood specimen obtained on the fourth day. This enabled an estimate of bone uptake. Two imaging studies to monitor the Sn-117m distribution were obtained in the first week and repeat chemistries were obtained at one week. Complete blood counts were obtained weekly for at least two months and less frequently thereafter. A repeat Tc-99m MDP bone imaging study was performed at two months.
As a result, a dosage of the Sn-117m chelate within the range found to be effective for consistent pain reduction can also be expected to be non-toxic to the patient.

bone pain = test: Palliation of bone pain in human subjects (clinical study, patient pain records); assay type: in vivo; design: key to Result (pain relief): -: No relief; +: Partial Relief; ++: Good Relief
Description: (§3) Fourteen patients were enrolled in a controlled clinical study, including 9 males and 5 females. The patients were administered an Sn-117m chelate complex-containing composition (described above in Example 3) sufficient to provide between 33 and 156 μCi/kg body weight. The protocol was approved by an institutional review board and the United States Food and Drug Administration (FDA). All subjects gave informed consent.
as §1, §2
Patients maintained a record of pain levels and sites daily for two weeks and then twice a week for the next 6 weeks.

bone [2] = test: Bone uptake estimated from 4-day urine collection and blood specimen (% Total in Bone); assay type: in vivo, human; conditions: i.v. infusion
Description: as §3, §2

bone [3] = test: External gamma camera / SPECT imaging of distribution in patients; assay type: in vivo, human
Description: Also note that the dose of the Sn-117m compound is within the range of dosages found to palliate pain according to the method of the invention.
The right panel depicts a three-dimensional reprojection image from SPECT (Single Photon Emission Computed Tomography) of a portion of the skeleton in the same patient.
as §2

Substance: Sn-117m (Sn^4+) diethylenetriaminepentaacetic acid [Sn-117m (Sn^4+) DTPA]
- white blood cell (WBC) count or platelet count ([1]; Patient 11, over three months following single administration (10.4 mCi)): no decrease
- hemopoietic toxicity ([1]; all patients in the study): no patients in the study showed evidence of hemopoietic toxicity
- Result (pain relief) (bone pain; Patient 4, prostate cancer, 61 kg, single 4.70 mCi (0.077 mCi/kg)): -
- Result (pain relief) (bone pain; Patient 6, unknown primary cancer, 108 kg, single 8.41 mCi (0.078 mCi/kg)): +
- Result (pain relief) (bone pain; Patient 7, prostate cancer, 59 kg, single 4.95 mCi (0.084 mCi/kg)): ++
- Result (pain relief) (bone pain; Patient 8, lung cancer, 61 kg, single 8.95 mCi (0.146 mCi/kg)): ++
- Result (pain relief) (bone pain; Patient 9, breast cancer, 59 kg, single 8.41 mCi (0.142 mCi/kg)): ++
- Result (pain relief) (bone pain; Patient 10, breast cancer, 59 kg, single 8.00 mCi (0.135 mCi/kg)): ++
- Result (pain relief) (bone pain; Patient 11, prostate cancer, 67 kg, single 10.46 mCi (0.156 mCi/kg)): +
- Result (pain relief) (bone pain; Patient 12, prostate cancer, 93 kg, single 14.46 mCi (0.156 mCi/kg)): ++
- Result (pain relief) (bone pain; Patient 13, prostate cancer, 118 kg, single 15.49 mCi (0.131 mCi/kg)): ++
- Result (pain relief) (bone pain; Patient 14, breast cancer, 50 kg, single 7.54 mCi (0.151 mCi/kg)): +
- response to treatment, lower dose (bone pain; patients given a lower dose): variable response to the treatment, in one case indicating that no relief was had
- relief of pain, higher dose (bone pain; seven patients who received more than about 9 mCi/70 kg (~129 μCi/kg), listed as Sn-117m chelates): all experienced relief of pain; also recorded: five experienced excellent relief; also recorded: two experienced partial relief
- relief or palliation of pain, overall (bone pain; single administrations, 33 to 156 μCi/kg, fourteen patients): dose-dependent relief or palliation of pain
- % Total in Bone (bone [2]; Patient 9, breast cancer, 8.41 mCi (0.142 mCi/kg)): 72.1%
- % Total in Bone (bone [2]; Patient 10, breast cancer, 8.00 mCi (0.135 mCi/kg)): 59.2%
- % Total in Bone (bone [2]; Patient 11, prostate cancer, 10.46 mCi (0.156 mCi/kg)): 58.0%
- % Total in Bone (bone [2]; Patient 12, prostate cancer, 14.46 mCi (0.156 mCi/kg)): 34.1%
- % Total in Bone (bone [2]; Patient 13, prostate cancer, 15.49 mCi (0.131 mCi/kg)): 71.3%
- % Total in Bone (bone [2]; Patient 14, breast cancer, 7.54 mCi (0.151 mCi/kg)): 69.2%
- distribution in bone, whole body and SPECT images (bone [3]; cancer patient with bone metastases, 4 days after 5 mCi, FIG. 2): patchy bright spots denote spread of cancer to bone
- distribution in bone by gamma camera imaging compared with technetium-99m-MDP (bone [3]; patient with prostate cancer spread to bone, 4 days after 10 mCi, FIG. 1): similarity of distribution of the two nuclides
